In ChEMBL document CHEMBL1201862, “PubChem BioAssay data set” (2004):
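Growth conditions: 96-well plates. Treatment: test compound, 48 hours, 5 concentrations. Analysis: linear interpolation between bracketing concentrations; unreached endpoints set to highest concentration. GI50 = concentration required for 50% inhibition of growth.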 The source made the active and inactive calls. Rule as the data show it: active = GI50 up to about 1.1 µM and inactive = higher.

Assays:
Test in all cases: inhibition of tumour cell growth, NCI panel, 48 h
HT-29 = system: HT-29
OVCAR-5 = system: OVCAR-5
NCI-H226 = system: NCI-H226
K562 = system: K562
SR = system: SR
SF-295 = system: SF-295
KM12 = system: KM12
MOLT-4 = system: MOLT-4
MDA-MB-231 = system: MDA-MB-231
MCF7 = system: MCF7
HOP-62 = system: HOP-62
OVCAR-3 = system: OVCAR-3
NCI-H23 = system: NCI-H23
M14 = system: M14
CAKI-1 = system: CAKI-1
TK-10 = system: TK-10
UACC-62 = system: UACC-62
UACC-257 = system: UACC-257
U-251 = system: U-251
HCT-15 = system: HCT-15
DU-145 = system: DU-145
LOX IMVI = system: LOX IMVI
A498 = system: A498
HCT-116 = system: HCT-116
NCI-H460 = system: NCI-H460
OVCAR-8 = system: OVCAR-8
MDA-MB-435 = system: MDA-MB-435
SF-539 = system: SF-539
EKVX = system: EKVX
T47D = system: T47D
CCRF-CEM = system: CCRF-CEM
SNB-75 = system: SNB-75
COLO 205 = system: COLO 205
HOP-92 = system: HOP-92
OVCAR-4 = system: OVCAR-4
SNB-19 = system: SNB-19
SN12C = system: SN12C
HL-60 = system: HL-60
Hs-578T = system: Hs-578T
SK-OV-3 = system: SK-OV-3
786-0 = system: 786-0
IGROV-1 = system: IGROV-1
NCI-H522 = system: NCI-H522
NCI/ADR-RES = system: NCI/ADR-RES
RPMI-8226 = system: RPMI-8226
A549 = system: A549
RXF 393 = system: RXF 393
MDA-N = system: MDA-N
PC-3 = system: PC-3
SF-268 = system: SF-268
SK-MEL-2 = system: SK-MEL-2
SW-620 = system: SW-620
ACHN = system: ACHN
SK-MEL-5 = system: SK-MEL-5
HCC 2998 = system: HCC 2998
SK-MEL-28 = system: SK-MEL-28
BT-549 = system: BT-549
Malme-3M = system: Malme-3M
UO-31 = system: UO-31

O=C(CSc1nc2ccc(I)cc2c(=O)n1Cc1ccccc1)N/N=C/c1ccccc1
GI50 (HT-29): 47.6 µM (inactive) | GI50 (OVCAR-5): 57 µM (inactive) | GI50 (NCI-H226): 29.9 µM (inactive) | GI50 (K562): 29.6 µM (inactive) | GI50 (SR): 13.5 µM (inactive) | GI50 (SF-295): 11.4 µM (inactive) | GI50 (KM12): 48.8 µM (inactive) | GI50 (MOLT-4): 58.1 µM (inactive) | GI50 (MDA-MB-231): 8.2 µM (inactive) | GI50 (MCF7): 25.2 µM (inactive) | GI50 (HOP-62): 6.82 µM (inactive) | GI50 (OVCAR-3): 11.6 µM (inactive) | GI50 (NCI-H23): 17.5 µM (inactive) | GI50 (M14): 43.3 µM (inactive) | GI50 (CAKI-1): 4.01 µM (inactive) | GI50 (TK-10): 15.2 µM (inactive) | GI50 (UACC-62): 39.2 µM (inactive) | GI50 (UACC-257): 26.3 µM (inactive) | GI50 (U-251): 11.4 µM (inactive) | GI50 (HCT-15): 22.1 µM | GI50 (DU-145): 39.3 µM (inactive) | GI50 (LOX IMVI): 41.7 µM (inactive) | GI50 (A498): 15.2 µM (inactive) | GI50 (HCT-116): 33.9 µM (inactive) | GI50 (NCI-H460): 27 µM (inactive) | GI50 (OVCAR-8): 17.9 µM (inactive) | GI50 (MDA-MB-435): > 100 µM (inactive) | GI50 (SF-539): 26.9 µM (inactive) | GI50 (EKVX): 26.6 µM (inactive) | GI50 (T47D): 23.1 µM (inactive) | GI50 (CCRF-CEM): 40.9 µM (inactive) | GI50 (SNB-75): 11.1 µM (inactive) | GI50 (COLO 205): > 100 µM (inactive) | GI50 (HOP-92): 11.5 µM (inactive) | GI50 (OVCAR-4): 34.2 µM (inactive) | GI50 (SNB-19): 17.5 µM (inactive) | GI50 (SN12C): 66.1 µM (inactive) | GI50 (HL-60): > 100 µM (inactive) | GI50 (Hs-578T): 1.01 µM (active) | GI50 (SK-OV-3): 10.4 µM (inactive) | GI50 (786-0): 11.8 µM (inactive) | GI50 (IGROV-1): 14.8 µM (inactive) | GI50 (NCI-H522): 18.1 µM (inactive) | GI50 (NCI/ADR-RES): 23.8 µM (inactive) | GI50 (RPMI-8226): 82.4 µM (inactive) | GI50 (A549): 25.2 µM (inactive) | GI50 (RXF 393): 8.13 µM (inactive) | GI50 (MDA-N): > 100 µM (inactive) | GI50 (PC-3): 10.3 µM (inactive) | GI50 (SF-268): 10.6 µM (inactive) | GI50 (SK-MEL-2): 12 µM (inactive) | GI50 (SW-620): > 100 µM (inactive) | GI50 (ACHN): 21.7 µM (inactive) | GI50 (SK-MEL-5): 42.4 µM (inactive) | GI50 (HCC 2998): 67.1 µM (inactive) | GI50 (SK-MEL-28): > 100 µM (inactive)

CC(C)(C)C1CCC2c3c([nH]c4ccccc34)C3C(=O)N(c4ccccc4Cl)C(=O)C3C2C1 (configuration not stated)
GI50 (HT-29): 5.86 µM (inactive) | GI50 (OVCAR-5): > 10 µM (inactive) | GI50 (NCI-H226): > 10 µM (inactive) | GI50 (K562): 9.79 µM (inactive) | GI50 (SR): 13.4 µM (inactive) | GI50 (SF-295): 19.7 µM (inactive) | GI50 (MOLT-4): 17.9 µM (inactive) | GI50 (MDA-MB-231): 10.3 µM (inactive) | GI50 (BT-549): 23.8 µM (inactive) | GI50 (HOP-62): 14.5 µM (inactive) | GI50 (OVCAR-3): 15.6 µM (inactive) | GI50 (NCI-H23): 14.4 µM (inactive) | GI50 (M14): 17.1 µM (inactive) | GI50 (CAKI-1): 9.12 µM (inactive) | GI50 (TK-10): 19.4 µM (inactive) | GI50 (UACC-62): 14 µM (inactive) | GI50 (UACC-257): 31.6 µM (inactive) | GI50 (U-251): 15.6 µM (inactive) | GI50 (HCT-15): 12.1 µM | GI50 (DU-145): 15.1 µM (inactive) | GI50 (LOX IMVI): 10.6 µM (inactive) | GI50 (A498): 17.9 µM (inactive) | GI50 (Malme-3M): 17.3 µM (inactive) | GI50 (HCT-116): 3.18 µM (inactive) | GI50 (NCI-H460): 3.48 µM (inactive) | GI50 (OVCAR-8): 16 µM (inactive) | GI50 (MDA-MB-435): 30.7 µM (inactive) | GI50 (SF-539): > 10 µM (inactive) | GI50 (EKVX): 6.65 µM (inactive) | GI50 (CCRF-CEM): 15.3 µM (inactive) | GI50 (COLO 205): > 10 µM (inactive) | GI50 (HOP-92): 0.15 µM (active) | GI50 (SNB-19): 35.8 µM (inactive) | GI50 (SN12C): 10.6 µM (inactive) | GI50 (HL-60): 12.6 µM (inactive) | GI50 (Hs-578T): 10.4 µM (inactive) | GI50 (SK-OV-3): 22.8 µM (inactive) | GI50 (786-0): 10.3 µM (inactive) | GI50 (IGROV-1): 25.9 µM (inactive) | GI50 (NCI/ADR-RES): 15.3 µM (inactive) | GI50 (RPMI-8226): 31.4 µM (inactive) | GI50 (A549): 9.2 µM (inactive) | GI50 (RXF 393): 11.9 µM (inactive) | GI50 (MDA-N): 12.1 µM (inactive) | GI50 (UO-31): 14.5 µM (inactive) | GI50 (PC-3): 5.31 µM (inactive) | GI50 (SF-268): 14.4 µM (inactive) | GI50 (SK-MEL-2): 17.5 µM (inactive) | GI50 (SW-620): 7.94 µM (inactive) | GI50 (ACHN): 14.1 µM (inactive) | GI50 (SK-MEL-5): 14.1 µM (inactive) | GI50 (HCC 2998): 3.41 µM (inactive)

COC(=O)C([C@H]1CC[C@H](OCc2ccccc2)[C@@]1(O)COCc1ccccc1)C(C)(O)CCc1ccccc1 (some centres not stated)
GI50 (HT-29): 4.55 µM (inactive) | GI50 (OVCAR-5): 13.5 µM (inactive) | GI50 (NCI-H226): 11.8 µM (inactive) | GI50 (K562): 8.15 µM (inactive) | GI50 (SR): 5.43 µM (inactive) | GI50 (SF-295): 8.41 µM (inactive) | GI50 (KM12): 3.32 µM (inactive) | GI50 (MOLT-4): 3.63 µM (inactive) | GI50 (MDA-MB-231): 12 µM (inactive) | GI50 (MCF7): 10.1 µM (inactive) | GI50 (BT-549): 16.7 µM (inactive) | GI50 (HOP-62): 15.2 µM (inactive) | GI50 (OVCAR-3): 12.7 µM (inactive) | GI50 (NCI-H23): 15.4 µM (inactive) | GI50 (M14): 10.6 µM (inactive) | GI50 (CAKI-1): 57.9 µM (inactive) | GI50 (TK-10): 17.1 µM (inactive) | GI50 (UACC-62): 13.2 µM (inactive) | GI50 (UACC-257): 13.8 µM (inactive) | GI50 (U-251): 11.6 µM (inactive) | GI50 (HCT-15): 13.5 µM | GI50 (DU-145): 24.2 µM (inactive) | GI50 (LOX IMVI): 8.47 µM (inactive) | GI50 (A498): 15 µM (inactive) | GI50 (Malme-3M): 11.5 µM (inactive) | GI50 (HCT-116): 10.7 µM (inactive) | GI50 (OVCAR-8): 13.4 µM (inactive) | GI50 (MDA-MB-435): 14.4 µM (inactive) | GI50 (SF-539): 15.4 µM (inactive) | GI50 (EKVX): 8.57 µM (inactive) | GI50 (CCRF-CEM): 6.92 µM (inactive) | GI50 (SNB-75): 2.07 µM (inactive) | GI50 (COLO 205): 12.2 µM (inactive) | GI50 (OVCAR-4): 17.1 µM (inactive) | GI50 (SNB-19): 26.5 µM (inactive) | GI50 (SN12C): 5.13 µM (inactive) | GI50 (SK-OV-3): 27.1 µM (inactive) | GI50 (786-0): 12.9 µM (inactive) | GI50 (IGROV-1): 10.9 µM (inactive) | GI50 (NCI-H522): 8.07 µM (inactive) | GI50 (NCI/ADR-RES): 4.06 µM (inactive) | GI50 (RPMI-8226): 9.89 µM (inactive) | GI50 (A549): 6.71 µM (inactive) | GI50 (RXF 393): 10.4 µM (inactive) | GI50 (MDA-N): 13.1 µM (inactive) | GI50 (UO-31): 10.7 µM (inactive) | GI50 (PC-3): 4.13 µM (inactive) | GI50 (SF-268): 4.01 µM (inactive) | GI50 (SK-MEL-2): 12.2 µM (inactive) | GI50 (SW-620): 13.5 µM (inactive) | GI50 (ACHN): 12.5 µM (inactive) | GI50 (SK-MEL-5): 14.1 µM (inactive) | GI50 (HCC 2998): 14 µM (inactive) | GI50 (SK-MEL-28): 15.3 µM (inactive)
